We go through 6 compounds from ChEMBL document CHEMBL1127265, “Synthesis of a novel ring contracted artemisinin derivative” (1994).

The species entered for this assay is Mus musculus. Kind of assay: Blood schizonticidal activity in mice model with Plasmodium berghei k-173 infection was determined. The class given is functional.
`C[C@@H]1CCC2[C@]34OOC(C)(CCC13)O[C@H]4O[C@]2(C)CO` (single isomer, unassigned) yielded an ED90 of 25 mg/kg.
The same measure for `CC1OC2OC3(C)CCC4[C@H](C)CCC([C@H]1C)[C@@]24OO3.O` (single isomer, unassigned): 10 mg/kg; for `C[C@@H]1CCC2[C@@H](C)[C@H](OC[C@@]3(C)OC4OC5(C)CCC6[C@H](C)CCC3[C@@]46OO5)OC3OC4(C)CCC1[C@]32OO4` (single isomer, unassigned): 2.5 mg/kg.
In the case of `C[C@@H]1CCC2[C@@H](C)[C@@H](OC[C@]3(C)OC4OC5(C)CCC6[C@@H](C)CCC3[C@]46OO5)OC3OC4(C)CCC1[C@]32OO4` (single isomer, unassigned), the ED90 amounted to 1.25 mg/kg.
The figure for `C[C@@H]1CCC2[C@]34OOC(C)(CCC13)O[C@H]4O[C@]2(C)C=O` (single isomer, unassigned) is 25 mg/kg; for `CCO[C@H]1O[C@@H]2O[C@@]3(C)CC[C@H]4[C@H](C)CC[C@@H]([C@H]1C)[C@@]24OO3` [ARTEMOTIL] it is 1.25 mg/kg.
